{
  "source": "patent US20100022517A1",
  "about": "“OPHTHALMIC FORMULATION OF RHO KINASE INHIBITOR COMPOUND” (priority 2006, published 2010)",
  "key": {"[1]": {"assay": "Impact of pH on solubility, buffered cosolvent system (plON pSOL Evolution)", "type": "physicochemical", "conditions": "for solubility: buffered cosolvent system", "protocol": "Solubility was determined within a target pH range of 4.0-9.0 using a buffered cosolvent system (plON pSOL Evolution)."}, "[2]": {"assay": "Solubility of Compound A at target pH 7.3 in 0.85% NaCl vehicle with surfactant or chelating agent, filtered, UV analysis", "type": "physicochemical", "conditions": "for Concentration Compound A: 20 mM prepared", "source_text": "Concentrations of the surfactant used were at the maximum allowable concentration for excipients Generally Regarded As Safe (GRAS)."}, "[3]": {"assay": "Effect of formulation pH on ocular surface, aqueous humor and systemic bioavailability after topical ocular dosing", "type": "in vivo", "protocol": "Dose Formulation and Administration. Compound A was formulated at 0.12% w/v (the equivalent millimolar concentration is 3 mM) in 10 mM phosphate, 0.8% polysorbate 80, 0.85% NaCl, 0.01% BAC, 0.1% EDTA at three different pH's, 5.3, 6.3 and 7.3, Compound A was administered as a 30 μl drop to both eyes of each animal within a dosing group and the influence of pH on ocular and systemic exposure was examined.\nStudy sampling. Plasma, aqueous humor, and ocular samples were obtained from 2 animals (4 eyes) per dosing group at times of 0.25, 0.5, 1, and 2 hours post dosing.\nAqueous humor is the fluid within the anterior chamber of the eye and has the closest correlation to the concentration at the site of action, the trabecular meshwork. Cmax indicates the peak concentration of drug found within aqueous humor. AUC indicates total concentration of the drug within the aqueous humor over time.\nPlasma concentration analysis indicates systemic exposure. Systemic exposure is the exposure of the drug to the entire body. Cmax and AUC describe the peak concentration and total concentration of the drug over time, respectively, for Compound A in plasma.\n40 μL of saline was applied to the eyes at 0.25 h, 0.5 h, 1 h, and 2 h after administration of Compound A, and the lavage fluids were collected as samples. Ocular surface relates to the surface of the cornea and conjunctiva. Ocular surface residence time is the average time Compound A resides on the ocular surface."}, "[4]": {"assay": "Ocular comfort composite behaviour score after ocular instillation", "type": "in vivo, rabbit", "protocol": "Dose Formulation and Administration.\nFormulation A: 10 mM phosphate, 1% polysorbate 80, 0.85% NaCl, 0.02% BAC, 0.2% EDTA pH 7.0.\nFormulation B: 10 mM phosphate, 1% polysorbate 80, 2.36% Glycerol, 0.02% BAC, 0.2% EDTA pH 7.1.\nFormulation C: 10 mM phosphate, 1% polysorbate 80, 2.36% Glycerol, 0.02% BAC, 0.2% EDTA, 0.5% hydroxypropyl methyl cellulose, pH 7.1.\nFormulation D: 10 mM phosphate, 1% polysorbate 80, 2.36% Glycerol, 0.02% BAC, 0.2% EDTA, 1% 1,2 dimyristoyl-sn-glycero-3-phosphocholine, pH 7.1.\nPharmacodynamic Analysis. Formulations A-D were administered as two 30 μl drops to the right eye of each rabbit within a dosing group. The rabbits were evaluated for 15 minutes after ocular instillation and their changes in behavior were recorded. […] The higher the score, the more discomfort an animal is. A mean±SE was generated for each group."}, "[5]": {"assay": "Accelerated stability of Compound A formulation at 60° C., HPLC with UV detection", "type": "physicochemical", "conditions": "increase in pH from 5.3 to 6.3 and 7.3, 0.9% saline, 0.1% EDTA, 0.01% benzalkonium chloride, 0.8% polysorbate 80", "source_text": "Compound A was formulated in a 0.9% saline solution containing 0.1% EDTA, 0.01% Benzalkonium Chloride and 0.8% Polysorbate 80 at three levels of pH; 5.3, 6.3 and 7.3."}, "[6]": {"conditions": "[…] w/v, 30 μl drop to both eyes, increasing pH 5.3, 6.3, 7.3"}},
  "note": "Where two headings read alike, the source gives them in different places.",
  "data": [
    {"smiles": "CCS(=O)(=O)Nc1cccc(CN2CCC[C@@H](Nc3ccc4[nH]ncc4c3)C2)c1", "note": "[Compound 1.123, (R)-N-(3-((3-(1H-indazol-5-ylamino)piperidin-1-yl)methyl)phenyl)ethanesulfonamide]", "values": [
      {"measurement": "solubility", "setting": "[1]; pH 5.6, read-out: maximum solubility", "value": 5000, "unit": "µg/mL"},
      {"measurement": "Avg. Sol", "setting": "[1]; pH 5.6", "value": 5001, "unit": "µg/mL"},
      {"measurement": "Avg. Sol", "setting": "[1]; pH 7.2", "value": 948, "unit": "µg/mL"},
      {"measurement": "Avg. Sol", "setting": "[1]; pH 8.5", "value": 282, "unit": "µg/mL"}
    ]},
    {"smiles": "OCCOc1cccc(CN2CC[C@@H](Nc3cccc4cnccc34)C2)c1", "note": "[Compound 2.039, (R)-2-(3-((3-(isoquinolin-5-ylamino)pyrrolidin-1-yl)methyl)phenoxy)ethanol]", "values": [
      {"measurement": "Concentration Compound A", "setting": "[2]; EDTA 0.3%, pH of solution 7.39, 0.85% NaCl", "value": 1380, "unit": "µg/mL"},
      {"measurement": "Concentration Compound A", "setting": "[2]; HCO-40 (hydrogenated castor oil) 0.5%, pH of solution 7.39, 0.85% NaCl", "value": 2540, "unit": "µg/mL"},
      {"measurement": "Concentration Compound A", "setting": "[2]; Poloxamer 188 0.1%, pH of solution 7.30, 0.85% NaCl", "value": 1490, "unit": "µg/mL"},
      {"measurement": "Concentration Compound A", "setting": "[2]; Poloxamer 407 0.16%, pH of solution 7.28, 0.85% NaCl", "value": 6020, "unit": "µg/mL"},
      {"measurement": "Concentration Compound A", "setting": "[2]; Polysorbate 80 1%, pH of solution 7.49, 0.85% NaCl", "value": 3850, "unit": "µg/mL"},
      {"measurement": "solubility of Compound A among the surfactant formulations", "setting": "[2]; formulations containing polysorbate 80 and poloxamer 407, target pH 7.3", "value": "highest solubility"},
      {"measurement": "ocular surface concentration", "setting": "[3]; 0.25 h, between pH 5.3 and 6.3", "value": "increased only slightly"},
      {"measurement": "ocular surface concentration", "setting": "[3]; 0.25 h, from pH 6.3 to 7.3", "value": "no change"},
      {"measurement": "aqueous humor exposure (Cmax and AUC)", "setting": "[3]; [6]", "value": "enhances the exposure within the aqueous humor"},
      {"measurement": "plasma concentration (Cmax and AUC), systemic exposure", "setting": "[3]; [6]", "value": "no effect on the plasma concentration"},
      {"measurement": "ocular surface residence time", "setting": "[3]; […] w/v, pH increased from 5.3, 6.3 to 7.3, over 2 hours", "value": "increase in residence time"},
      {"measurement": "ocular surface concentration", "setting": "[3]; between 1 and 2 hours, pH 7.3", "value": "remained consistent"},
      {"measurement": "solubility", "setting": "[1]; pH 4-5.8, read-out: solubility", "value": "> 20000", "unit": "µg/mL"},
      {"measurement": "Avg. Sol", "setting": "[1]; pH 4.0", "value": ">20000", "unit": "µg/mL"},
      {"measurement": "Avg. Sol", "setting": "[1]; pH 5.8", "value": ">20000", "unit": "µg/mL"},
      {"measurement": "Avg. Sol", "setting": "[1]; pH 7.7", "value": 2312, "unit": "µg/mL"},
      {"measurement": "ocular comfort score", "setting": "[4]; 0.16% w/v, two 30 μl drops, right eye, addition of 1% 1,2 dimyristoyl-sn-glycero-3-phosphocholine (Formulation D)", "value": "increased ocular discomfort"},
      {"measurement": "ocular comfort score", "setting": "[4]; increasing concentrations 0.03%, 0.1%, 0.32% w/v in formulation A", "value": "increased ocular discomfort"},
      {"measurement": "ocular comfort score", "setting": "[4]; lower concentrations 0.03 and 0.1% w/v in formulation A, versus ALPHAGAN, RESTASIS, pilocarpine, LUMIGAN", "value": "comparable to those of the approved glaucoma medications"},
      {"measurement": "stability (percent of Compound A remaining)", "setting": "[5]", "value": "decrease in stability"}
    ]}
  ]
}
